Experimental data: PMC4804240, “Crystal structure of the vicilin from Solanum melongena reveals existence of different anionic ligands in structurally similar pockets” (Scientific Reports, 2016)
Values belong to the molecule of their own block, whether it stands above or below them.

Columns and labels:
[1] = target: SM80.1, 7S vicilin from Solanum melongena (eggplant) seeds (Solanum melongena); experiment: crystal structure; R32 crystal form, 1.5 A; one monomer in the asymmetric unit, trimer formed around the threefold crystallographic axis; crystals grown in 10% (w/v) PEG 3350, 1.5 M-2 M sodium malonate, hanging drop, 25°C
[2] = target: T1, SM80.1 (Solanum virginianum, UniProt A0A158RFR1); experiment: X-ray crystal structure, […] Å; format: binding; settings: crystals from PEG 3350, sodium malonate, 25°C
T1 construct: native protein from seeds (ammonium sulphate fraction, gel filtration); 45 kDa band; homotrimer; 392 residues in structure
T1 sequence (A0A158RFR1 1-392): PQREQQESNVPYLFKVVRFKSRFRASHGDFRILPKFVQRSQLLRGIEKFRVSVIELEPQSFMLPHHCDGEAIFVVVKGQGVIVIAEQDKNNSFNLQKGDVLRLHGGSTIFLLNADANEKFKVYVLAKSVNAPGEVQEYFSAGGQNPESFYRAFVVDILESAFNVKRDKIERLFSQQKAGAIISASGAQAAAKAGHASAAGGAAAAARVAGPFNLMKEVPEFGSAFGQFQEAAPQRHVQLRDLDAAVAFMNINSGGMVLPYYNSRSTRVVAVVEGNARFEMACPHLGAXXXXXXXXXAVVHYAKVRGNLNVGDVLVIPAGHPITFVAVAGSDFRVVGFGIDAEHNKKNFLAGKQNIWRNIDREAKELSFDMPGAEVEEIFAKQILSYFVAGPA

stoichiometry N [1]: 3
Molecule: SM80.1, 7S vicilin from Solanum melongena (eggplant) seeds (natural protein)

Molecule: O=C1CC[C@@H](C(=O)O)N1 [PCA, pyroglutamate]
X-ray crystal structure, 1.5 Å ([2]; co-purified endogenous ligand, N-terminal beta-barrel pocket (His65, Cys67)): The N-terminal domain has cyclic lactam of glutamate, called pyroglutamate.

Molecule: CC(=O)O [ACT, acetate]
X-ray crystal structure, 1.5 Å ([2]; bound without being listed in crystallisation mix, C-terminal beta-barrel pocket (Tyr260, Asn262, Arg267, Lys346)): Acetate moiety was present in the corresponding pocket in the C-terminal domain
